Assay results from patent US12312354B2, “Selective BTK irreversible inhibitors” (SAN DIEGO STATE UNIVERSITY FOUNDATION, priority 2019, dated 2025).

What was measured:
[1] = molecular target: BTK (Homo sapiens, UniProt Q06187); assay: In vitro kinase assay (biochemical), BTK; conditions: for IC50: in vitro kinase assay; for selectivity for BTK over BLK (BTK/BLK selectivity): ratio of BLK and BTK IC50
[2] = molecular target: HER2 (Homo sapiens, UniProt P04626); assay: In vitro kinase assay, HER2; assay type: biochemical
Chain of HER2 (P04626 23-1255): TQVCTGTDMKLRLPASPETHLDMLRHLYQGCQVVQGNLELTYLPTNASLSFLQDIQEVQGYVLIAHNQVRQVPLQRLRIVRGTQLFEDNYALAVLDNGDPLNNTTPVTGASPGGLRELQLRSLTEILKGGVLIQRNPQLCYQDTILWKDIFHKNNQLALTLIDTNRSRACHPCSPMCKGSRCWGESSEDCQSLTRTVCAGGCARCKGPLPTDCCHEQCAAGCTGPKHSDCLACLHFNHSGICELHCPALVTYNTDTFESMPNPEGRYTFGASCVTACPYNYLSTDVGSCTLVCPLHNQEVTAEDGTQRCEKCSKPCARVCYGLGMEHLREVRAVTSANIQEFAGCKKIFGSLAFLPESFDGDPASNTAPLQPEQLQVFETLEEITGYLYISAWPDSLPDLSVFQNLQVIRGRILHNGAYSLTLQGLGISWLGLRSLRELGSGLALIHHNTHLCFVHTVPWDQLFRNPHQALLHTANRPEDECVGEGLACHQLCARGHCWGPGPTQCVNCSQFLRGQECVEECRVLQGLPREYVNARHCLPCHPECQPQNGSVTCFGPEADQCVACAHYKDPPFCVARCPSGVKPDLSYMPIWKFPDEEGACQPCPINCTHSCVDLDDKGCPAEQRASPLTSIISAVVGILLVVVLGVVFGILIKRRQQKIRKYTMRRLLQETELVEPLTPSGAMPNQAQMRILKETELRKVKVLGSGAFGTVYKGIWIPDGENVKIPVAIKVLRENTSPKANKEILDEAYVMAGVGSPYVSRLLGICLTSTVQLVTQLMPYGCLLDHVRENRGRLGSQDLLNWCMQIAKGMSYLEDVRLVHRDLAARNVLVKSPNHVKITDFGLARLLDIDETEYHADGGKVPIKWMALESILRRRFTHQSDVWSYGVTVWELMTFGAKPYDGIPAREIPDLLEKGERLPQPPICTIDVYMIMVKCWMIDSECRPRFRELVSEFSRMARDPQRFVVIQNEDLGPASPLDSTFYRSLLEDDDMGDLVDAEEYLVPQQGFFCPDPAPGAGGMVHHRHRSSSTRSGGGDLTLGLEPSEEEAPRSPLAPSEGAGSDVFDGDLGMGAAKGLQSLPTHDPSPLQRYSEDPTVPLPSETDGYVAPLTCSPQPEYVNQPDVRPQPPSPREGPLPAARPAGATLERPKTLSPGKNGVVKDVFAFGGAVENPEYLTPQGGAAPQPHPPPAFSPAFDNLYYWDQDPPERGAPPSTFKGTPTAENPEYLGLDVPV

[3] = molecular target: T1, ITK (Homo sapiens, UniProt Q08881); assay: In vitro kinase assay, ITK; assay type: biochemical
T1 sequence (Q08881 1-620): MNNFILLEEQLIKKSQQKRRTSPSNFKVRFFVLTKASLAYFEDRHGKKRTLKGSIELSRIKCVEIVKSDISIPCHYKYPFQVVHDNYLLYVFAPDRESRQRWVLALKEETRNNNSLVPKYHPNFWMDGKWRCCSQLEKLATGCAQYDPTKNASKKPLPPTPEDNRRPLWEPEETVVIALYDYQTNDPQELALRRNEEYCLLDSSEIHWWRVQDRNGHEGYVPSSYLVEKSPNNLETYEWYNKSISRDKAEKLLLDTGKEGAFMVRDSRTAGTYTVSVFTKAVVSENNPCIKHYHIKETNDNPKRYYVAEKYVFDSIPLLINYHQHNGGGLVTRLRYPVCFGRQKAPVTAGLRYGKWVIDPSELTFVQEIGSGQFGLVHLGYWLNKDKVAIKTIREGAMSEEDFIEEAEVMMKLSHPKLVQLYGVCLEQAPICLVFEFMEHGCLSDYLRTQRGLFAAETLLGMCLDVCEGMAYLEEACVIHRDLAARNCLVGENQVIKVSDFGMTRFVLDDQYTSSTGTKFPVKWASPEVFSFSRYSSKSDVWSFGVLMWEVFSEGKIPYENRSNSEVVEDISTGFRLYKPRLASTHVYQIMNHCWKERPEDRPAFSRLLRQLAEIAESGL

[4] = molecular target: BLK (Homo sapiens, UniProt P51451); assay: In vitro kinase assay, BLK; assay type: biochemical
Chain of BLK (P51451 whole entry): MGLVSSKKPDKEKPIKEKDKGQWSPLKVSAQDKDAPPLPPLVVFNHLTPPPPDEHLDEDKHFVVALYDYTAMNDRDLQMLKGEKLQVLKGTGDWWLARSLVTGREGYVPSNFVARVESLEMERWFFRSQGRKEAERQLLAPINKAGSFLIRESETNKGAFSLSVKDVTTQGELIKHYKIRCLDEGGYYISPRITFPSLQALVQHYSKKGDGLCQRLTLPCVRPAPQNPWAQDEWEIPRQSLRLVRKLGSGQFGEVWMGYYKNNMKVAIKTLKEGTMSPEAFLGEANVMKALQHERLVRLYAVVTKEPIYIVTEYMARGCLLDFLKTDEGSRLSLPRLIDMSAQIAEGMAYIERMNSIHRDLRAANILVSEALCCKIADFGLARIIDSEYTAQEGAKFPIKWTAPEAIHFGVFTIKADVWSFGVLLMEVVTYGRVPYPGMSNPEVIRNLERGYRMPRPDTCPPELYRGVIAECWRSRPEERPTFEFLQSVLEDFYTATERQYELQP

Chain of BTK (Q06187 whole entry): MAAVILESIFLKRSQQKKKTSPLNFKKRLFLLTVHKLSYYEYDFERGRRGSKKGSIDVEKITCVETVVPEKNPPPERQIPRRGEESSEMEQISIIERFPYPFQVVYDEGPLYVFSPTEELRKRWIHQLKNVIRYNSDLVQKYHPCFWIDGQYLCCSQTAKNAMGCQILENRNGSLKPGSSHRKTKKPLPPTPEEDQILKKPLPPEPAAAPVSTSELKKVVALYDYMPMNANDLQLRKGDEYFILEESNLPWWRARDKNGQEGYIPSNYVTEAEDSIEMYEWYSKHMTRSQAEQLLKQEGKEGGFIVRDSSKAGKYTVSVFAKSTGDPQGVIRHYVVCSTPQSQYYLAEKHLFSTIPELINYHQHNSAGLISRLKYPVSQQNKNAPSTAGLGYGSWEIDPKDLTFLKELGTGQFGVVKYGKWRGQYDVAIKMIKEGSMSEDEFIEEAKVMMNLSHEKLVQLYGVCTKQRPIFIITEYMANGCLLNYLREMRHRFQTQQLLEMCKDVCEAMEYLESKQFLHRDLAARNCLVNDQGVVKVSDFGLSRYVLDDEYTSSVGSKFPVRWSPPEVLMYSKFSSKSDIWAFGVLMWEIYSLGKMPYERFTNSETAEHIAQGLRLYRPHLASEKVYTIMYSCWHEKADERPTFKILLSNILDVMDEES

Compound | IC50 [1] | IC50 [2] | IC50 [3] | IC50 [4] | improvement in affinity/potency towards BTK over the diastereomer (Ra, R) / (Ra)-3.1 ([1]; fold, BTK IC50 425 nM vs 3307 nM) | selectivity for BTK over BLK (BTK/BLK selectivity) [1]
C=CC(=O)N1CCC[C@H](n2c(C)c(-c3ccc(Oc4ccccc4)cc3C)c3c(N)ncnc32)C1 (single isomer, unassigned) [(Sa)-3.2] | 3920 nM | > 10000 nM | > 10000 nM | 1730 nM |  | 
C=CC(=O)N1CCC[C@@H](n2c(C)c(-c3ccc(Oc4ccccc4)cc3C)c3c(N)ncnc32)C1 (single isomer, unassigned) [(Sa)-3.1] | > 10000 nM | > 10000 nM | > 10000 nM | 9960 nM |  | 
C=CC(=O)N1CCC[C@H](n2c(C)c(-c3ccc(Oc4ccccc4)cc3C)c3c(N)ncnc32)C1 (single isomer, unassigned) [(Ra)-3.2] | 425 nM | > 10000 nM | > 10000 nM | 187 nM | 10 × | 
C=CC(=O)N1CCCC(n2c(C)c(-c3ccc(C(=O)Nc4ccccn4)cc3C)c3c(N)ncnc32)C1 (single isomer, unassigned) [(Sa)-3.10] | 21.7 nM |  |  | 90.4 nM |  | 
C=CC(=O)N1CCCC(n2nc(-c3c(C)cc(Oc4ccccc4)cc3C)c3c(N)ncnc32)C1 (stereo not shown) [3.8] | 37.4 nM |  |  | 174 nM |  | 
C=CC(=O)N1CCC[C@@H](n2c(C)c(-c3ccc(Oc4ccccc4)cc3C)c3c(N)ncnc32)C1 (single isomer, unassigned) [(Ra)-3.1] | 3310 nM | > 10000 nM | > 10000 nM | 1810 nM |  | 
C=CC(=O)N1CCC[C@H](n2c(C)c(-c3ccc(Oc4ccccc4)cc3)c3c(N)ncnc32)C1 [3.3] | 444 nM |  |  | 451 nM |  | 
C=CC(=O)N1CCCC(n2c(C)c(-c3ccc(C(=O)Nc4ccccn4)cc3C)c3c(N)ncnc32)C1 (single isomer, unassigned) [(Ra)-3.10] | 24.2 nM |  |  | 128 nM |  | 

Stronger by IC50 [1], values ahead:

IC50 [1] | IC50 [2] | IC50 [3] | IC50 [4] | improvement in affinity/potency towards BTK over the diastereomer (Ra, R) / (Ra)-3.1 ([1]; fold, BTK IC50 425 nM vs 3307 nM) | selectivity for BTK over BLK (BTK/BLK selectivity) [1] | Compound
17.3 nM |  |  | 55.9 nM |  |  | C=CC(=O)N1CCC[C@H](n2cc(-c3ccc(Oc4ccccc4)cc3)c3c(N)ncnc32)C1 [3.5]
6.4 nM |  |  | 14 nM |  | about 2 × | C=CC(=O)N1CCC[C@@H](n2cc(-c3ccc(Oc4ccccc4)cc3C)c3c(N)ncnc32)C1 [3.6]
5.5 nM |  |  | 8.4 nM |  |  | C=CC(=O)N1CCC[C@@H](n2nc(-c3ccc(Oc4ccccc4)cc3C)c3c(N)ncnc32)C1 [3.7]
2.7 nM |  |  | 9.1 nM |  |  | C=CC(=O)N1CCC[C@@H](n2cc(-c3ccc(Oc4ccccc4)cc3)c3c(N)ncnc32)C1 [3.4]
1.12 nM |  |  | 32.4 nM |  | 30 × | C=CC(=O)N1CCCC(n2nc(-c3ccc(C(=O)Nc4ccccn4)cc3C)c3c(N)ncnc32)C1 (stereo not shown) [3.11]
0.47 nM | 451 nM |  | 0.29 nM |  |  | C=CC(=O)N1CCC[C@@H](n2cc(-c3ccc(Oc4ccccc4)cc3)c3c(N)ncnc32)C1 (racemic) [Rac]
